# “Also recorded” adds a separate entry of the source. Read-outs that look alike come from different tables or passages of the source.
# How the values were obtained:
# [1] = Plasma R-, S- and total methadone concentrations after multiple small perioperative methadone doses (Example 1); conditions: human, in vivo, 0.1 mg/kg/dose
# [2] = test system: adolescents undergoing PSF; conditions: cited from earlier work; for postoperative opioid use (morphine equivalents): another adolescent PSF study, single larger intraoperative methadone dose; for mean morphine equivalent dose 0-72 hour: historical cohort
# [3] = test system: children undergoing PE and PSF surgeries; test: CYP2B6 genetic associations with methadone-induced PONV and pain scores (Example 3); format: in vivo, human
# Text: This Example is a prospective, genotype-blinded, clinical observational study of children undergoing Nuss bar repair for pectus excavatum (PE) and posterior spinal fusion (PSF) repair for idiopathic scoliosis that received multidose methadone-based multimodal analgesia, performed in a tertiary care pediatric hospital.
# Multimodal analgesia protocols as illustrated in TABLE 1 set forth above in Example 1 were followed for all the participants undergoing the surgeries.
# The primary clinical outcome measured was PONV. The secondary outcome measured was maximum postoperative pain scores. Episodes of PONV were recorded as a binary outcome from nursing reports on electronic health records. Analgesic efficacy was described in terms of patient self-reported pain scores. Pain scores were collected every 2 to 4 h using a self-reported numeric rating scale ranging from 0 to 10.
# Analyses were performed using the dominant, additive or recessive models to explore for possible associations. Associations were tested using ‘A’ as the referent allele and ‘a’ as the alternative allele under dominant model (i.e. AA vs. Aa/aa), additive model (i.e. AA vs. Aa vs. aa) and recessive model (i.e. AA/Aa vs. aa). Linear regression was used to investigate SNP associations for pain score. Poisson regression was used to investigate SNP associations for PONV. Unadjusted as well as covariate-adjusted analyses, adjusted for weight, race, age, surgery type and sex were performed. For primary outcome, PONV, the SNP's rate ratios (i.e. exponential of the slope parameter in the Poisson regression), p-values and 95% Cis were computed. For postoperative pain score, the SNPs' effect (i.e. the slope parameter in the linear regression model), p-values, and 95% confidence intervals (CIs) were computed.
# Because eight SNPs were used for the final analysis, a Bonferroni correction was used for multiple comparisons for the primary outcome measure, which yielded a significance threshold of p=0.00625 [p=0.05/8 SNPs)].
# [4] = test system: children undergoing PE and PSF surgeries; test: Postoperative opioid use, pain scores, FDI and hospital stay with multidose methadone-based multimodal analgesia (Example 1); format: in vivo, human; conditions: for postoperative opioid use (morphine equivalents): current Example
# [5] = test system: children undergoing PE and PSF surgeries; test: Safety of multidose perioperative methadone: respiratory depression, PONV, QTc (Example 1)
# [6] = test system: AAG; conditions: plasma; cited from earlier work
# [7] = test system: children undergoing PE and PSF surgeries; test: Regression of clinical outcomes on pharmacokinetic measures (Example 1, Table 3); conditions: logistic regression; CI in next column
# [8] = test system: adolescents undergoing PSF that received methadone; test: Preliminary pharmacogenetic associations in 50 PSF adolescents that received methadone; format: in vivo, human
# Text: OPRM1 rs1799971 is also associated with susceptibility to dependence.
# [9] = cited from earlier work
# [10] = equations 7, 10; decrease
# Text: Oral doses were either given as a tablet or a suspension depending on the patient's convenience. […] The time schedule was later modified to collect more samples through the 1st and 3rd inter-dose interval without samples through the 2n d interdose interval. This was done to aid in the optimal spread of the collected concentration time-points and improvement of estimation of absorption parameters of the oral doses. Some of the samples collected in a parallel study were also used whenever available with the consent of the patient to aid with the better estimation of the terminal elimination phase.
# The first-order conditional estimation method with η-ε interaction (FOCE-I) was used throughout the model building process. The dose of the drug, concentrations of the drug and the metabolite were converted to their molar counterparts to aid in the accurate estimation of the pharmacokinetic parameters. Perl-Speaks-NONMEM v.4.9.0, R v.4.0.4 (R Foundation for Statistical Computing) with the Xpose4 package v.4.6.0, RStudio v1.4 and Pirana v.2.9.9 were used for data exploration, visualization, diagnostics and automation. Measured plasma concentrations that were below the LLOQ were dealt with using the M1 method (discarding concentrations below the LLOQ and estimate the PK parameters using the remaining concentrations). […] Model assessment was based on successful minimization, OFV, the proper running of the covariance step, relative standard error of the parameter estimates, the goodness of fit plots and eta-shrinkage. Model validation was done using visual predictive checks and a bootstrapping procedure. The predictive performance of the models was evaluated using prediction corrected visual predictive checks (n=1000). The robustness of the final parameter estimates and the stability of the final model were validated using bootstrapping by generating 1000 resampled datasets with replacement.
# The model building process was done in a step-wise process. Multiple disposition models (one-, two- and three-compartment) were evaluated. Absorption models with various absorption parameters (first order absorption with and without lag, transit compartment models) were tried. Bioavailability was estimated as each patient had both intravenous and oral dose data. […] Vf was fixed to 1 in the model due to unidentifiability of the metabolite parameters as there were no urine data available for either the drug or the metabolite. CLF is the fraction of CL, the total clearance of the drug that contributes to CL2, the clearance towards the formation of the metabolite. […]
# The demographic covariates checked were biological gender, body weight, fat free mass, BMI and race. […] AAG was measured at every time-point the concentrations were measured and were therefore used as a time-varying covariate in the model. […]
# [11] = postoperative day 1, median (IQR)
# [12] = postoperative day 2, median (IQR)
# [13] = postoperative day 3, median (IQR)
# [14] = postoperative day 4, median (IQR)
# [15] = postoperative day 5, median (IQR)
structure (smiles),measurement,setting,value
CCC(=O)C(CC(C)N(C)C)(c1ccccc1)c1ccccc1 (racemic) [methadone],Cmax,[1],24.7 ng/mL
same,incidence of postoperative respiratory depression,"[2]; 7 out of 31 receiving intraoperative methadone, first 48 hours",22.6%
same,postoperative opioid use (morphine equivalents),[2]; postoperative day 1,0.54 mg/kg
same,postoperative opioid use (morphine equivalents),[2]; postoperative day 2,1.08 mg/kg
same,postoperative opioid use (morphine equivalents),[2]; postoperative day 3,1.29 mg/kg
same,mean morphine equivalent dose 0-72 hour,[2]; single intraoperative methadone 0.3 mg/kg,221
same,mean morphine equivalent dose 0-72 hour,[2]; single intraoperative methadone of 0.1 mg/kg,277 mg
same,PONV incidence in other studies,[2]; in vivo,33-38%
same,incidence of respiratory depression,"[2]; large observational study, intraoperative methadone of 0.14 mg/kg and postoperative opioids",37%
same,Morphine equivalent - Fusion,[3]; mean,0.6 mg/kg
same,Morphine equivalent - Pectus,[3]; mean,0.7 mg/kg
same,Length of hospital stay,"[3]; mean, 53 children",2.7 days
same,"Beta, patient reported pain scores","[3]; rs4803419, Recessive model TT vs CC/TT (so in the source), Covariate adjusted analysis",−1.70
same,"Beta, patient reported pain scores","[3]; rs4803419, Recessive model TT vs CC/TT (so in the source), Unadjusted analysis",−1.78
same,"Beta, patient reported pain scores","[3]; rs10500282, Additive Model CC vs TT, Covariate adjusted analysis",−2.61
same,"Beta, patient reported pain scores","[3]; rs10500282, Additive Model CC vs TT, Unadjusted analysis",−2.00
same,"Beta, patient reported pain scores","[3]; rs10500282, Additive Model TC vs TT, Covariate adjusted analysis",1.31
same,"Beta, patient reported pain scores","[3]; rs10500282, Additive Model TC vs TT, Unadjusted analysis",1.33
same,"Beta, patient reported pain scores","[3]; rs10500282, Dominant model TC/CC vs TT, Covariate adjusted analysis",1.18
same,"Beta, patient reported pain scores","[3]; rs10500282, Dominant model TC/CC vs TT, Unadjusted analysis",1.16
same,"Beta, patient reported pain scores","[3]; rs11882424, Additive Model TC vs TT, Covariate adjusted analysis",2.12
same,"Beta, patient reported pain scores","[3]; rs11882424, Additive Model TC vs TT, Unadjusted analysis",2.19
same,"Beta, patient reported pain scores","[3]; rs11882424, Dominant model TC/CC vs TT, Covariate adjusted analysis",2.12
same,"Beta, patient reported pain scores","[3]; rs11882424, Dominant model TC/CC vs TT, Unadjusted analysis",2.19
same,"mean morphine equivalent, multi-dose methadone regimen","[4]; 0-72 hour, standard deviation 28.4",113.25
same,median FDI score,"[4]; 3 months postoperatively, median (IQR)",4 (0-9.5)
same,median FDI score,"[4]; 6 months postoperatively, median (IQR)",2 (0-4)
same,median FDI score,"[4]; 12 months postoperatively, median (IQR)",0 (0-3.5)
same,Average pain scores during the entire in-hospital stay,[4]; PE,3.60
same,median hospital stay,[4]; PE,4 days
same,Average pain scores during the entire in-hospital stay,[4]; PSF,3.95
same,median hospital stay,[4]; PSF,3 days
same,median total opioid usage,[4]; following PE,2.6 mg/kg
same,median total opioid usage,[4]; following PSF,2.1 mg/kg
same,Average morphine equivalent dose,[4]; median (IQR),0.66 (0.59-0.74) mg/kg/day
same,median usage of the common rescue opioids,[4]; not different between the surgeries,0.03 mg/kg morphine equivalents
same,Average pain score,"[4]; numeric rating scale 0 to 10, median (IQR)",3.53 (2.73-4.80)
same,postoperative opioid use (morphine equivalents),[4]; postoperative day 1,0.6 mg/kg
same,Pain scores,[4]; [11],3.5 (2.3-5.1)
same,"morphine equivalent units, including methadone doses",[4]; [11],0.61 (0.56-0.65) MEU/kg
same,postoperative opioid use (morphine equivalents),[4]; postoperative day 2,0.88 mg/kg
same,Pain scores,[4]; [12],3.4 (2.9-4.6)
same,"morphine equivalent units, including methadone doses",[4]; [12],0.88 (0.68-1.06) MEU/kg
same,postoperative opioid use (morphine equivalents),[4]; postoperative day 3,0.64 mg/kg
same,Pain scores,[4]; [13],3.7 (2.0-5.2)
same,"morphine equivalent units, including methadone doses",[4]; [13],0.58 (0.37-0.85) MEU/kg
same,Pain scores,[4]; [14],3.8 (2.7-5.0)
same,"morphine equivalent units, including methadone doses",[4]; [14],0.42 (0.35-0.58) MEU/kg
same,Pain scores,[4]; [15],3.7 (3.3-4.4)
same,"morphine equivalent units, including methadone doses",[4]; [15],0.59 (0.21-0.67) MEU/kg
same,mean morphine equivalent dose in the first 72 postoperative hours,[4]; printed as mean (95% CI: 98.5-131.8),120.2 mg
same,opioid use reduction,"[4]; vs historical PCA opioids without intraoperative methadone, first 72 postoperative hours",58.67%
same,opioid use reduction,[4]; vs historical single intraoperative methadone of 0.1 mg/kg,59.12%
same,opioid use reduction,[4]; vs historical single intraoperative methadone of 0.2 mg/kg,47.81%
same,opioid use reduction,[4]; vs historical single intraoperative methadone of 0.3 mg/kg,48.76%
same,episodes of PONV,[5]; 38 children,18
same,respiratory depression observed,[5]; 38 children receiving multiple dose of methadone,0%
same,respiratory depression (in words),"[5]; 38 children, 95% Wilson binomial confidence [0, 0.09]",No child in this Example had respiratory depression; also recorded: no patient had respiratory depression
same,Postoperative QTc,"[5]; median (IQR), Bazett's formula",431 (414-440) ms
same,postoperative QTc longer than preoperative QTc interval,"[5]; median, IQR -10, 28",9 ms
same,patients with PONV,[5]; of 38 children,12
same,bound to AAG,[6],80-90%
same,"OR, Nausea/Vomiting vs Methadone dose per kg per day",[7],3.1e3
same,average in-hospital opioid use,[8]; OPRM1 rs1799971 AA genotype,33.2 ± 8.0 mg
same,average in-hospital opioid use,[8]; OPRM1 rs1799971 GG and GA genotype,40.1 ± 6.1 mg
same,hospital stay,[8]; adolescents other than FAAH rs3766246 wild type,2.6 ± 0.8 days
same,"lower in-hospital opioid use, homologous/heterologous variants of FAAH rs3766246 and rs4141964",[8]; compared with the wild type,15-20%
same,"higher average in-hospital opioid use, OPRM1 rs1799971 GG and GA vs AA genotype",[8]; in vivo,20%
same,"longer hospital stay, wild type of FAAH rs3766246",[8]; than others,1 days
same,contribution of CYP3A4 to the metabolism of the drug,[9]; in vivo,more than 50%
same,parent drug eliminated in urine,[9]; in vivo,10-20%
same,inter-individual variation in blood levels after methadone administration,[9]; up to,≤ 17 fold
CCC(=O)C(C[C@H](C)N(C)C)(c1ccccc1)c1ccccc1 [S-methadone],fractional change of V2 per active allele rs17650 (ORM1),[10],0.526
same,proportional change of V2 per unit AAG conc from 94.76,[10],0.00192
CCC(=O)C(C[C@@H](C)N(C)C)(c1ccccc1)c1ccccc1 [R-methadone],fractional change of V2 per active allele rs17650 (ORM1),[10],0.443
same,proportional change of V2 per unit AAG conc from 94.76,[10],0.00291

# Source: patent US20240068023A1 (The Trustees of Indiana University, priority 2021, published 2024)
